Source: US20100249018A1, “COMPOSITION AND METHOD FOR PREVENTING AND TREATING IMMUNE-RELATED DISORDER” (priority 2007, published 2010)
Square brackets hold non-standard residues; d marks the D form. Ends that are not written are not given here. * marks the point of attachment. Boc = CC(C)(C)OC(=O)*; For = O=C*

Key:
CLP mice = assay: Survival in CLP (cecal ligation and puncture) sepsis mouse model; assay type: in vivo; settings: for therapeutic effect of FPR ligands and scrambled peptide / therapeutic effect of WKYMVm analogs on experimental sepsis: 4 mg/kg subcutaneous four times at 2, 14, 26, 38 h post-CLP; for therapeutic effect of FPR ligands and scrambled peptide: FIG. 1g; for reversal of the therapeutic effects of WKYMVm by antagonist pre-treatment: antagonist 4 mg/kg subcutaneous 2 h before CLP and 2 h before each WKYMVm (4 mg/kg) treatment, FIG. 1d; for therapeutic effect of WKYMVm analogs on experimental sepsis: ICR mice, survival up to 10 days, FIG. 1h
Experimental: Male WT ICR mice and IL-12R 2-, IFN-γ-deficient, and WT C57BL/6 mice (kindly donated from Y. C. Sung, POSTECH, Republic of Korea) were used for experimental sepsis model, as previously described (Yan, J. J., Nat. Med. 10:161-167, 2004). All experiments involving animals adhered to the guidelines and received the approval of the Institutional Review Committee for Animal Care and Use at Dong-A University. For CLP, mice were anesthetized with pentothal sodium (50 mg/kg, intraperitoneal) and a small abdominal midline incision was made to expose the cecum. The cecum was then ligated below the ileocecal valve, punctured twice through both surfaces (or once for the measurement of cytokine production) using a 22-gauge needle and the abdomen was closed. Sham CLP mice were subjected to the same procedure, but without ligation and puncture of the cecum. Survival was monitored once daily for 10 days.
To investigate whether WKYMVm has a therapeutic effect on experimental sepsis, CLP was performed on albino ICR (Institute of Cancer Research) mice, and their survival was monitored for up to 10 days. […] Various doses of WKYMVm were injected subcutaneously four times into CLP mice at 2, 14, 26, and 38 h post-CLP.
To examine the effect of WKYMVm treatment, mice were injected subcutaneously with various doses of the peptide or with PBS as a negative control beginning 2 h after CLP. […] Various doses of WKYMVm were injected subcutaneously four times into CLP mice at […] post-CLP.
CLP mice were given zero, one, two, three, four, or five injections of WKYMVm (4 mg/kg, subcutaneous).
To evaluate the roles of FPR1 and FPR2, an FPR1 antagonist [N-t-butoxycarbonyl-Phe-Leu-Phe-Leu-Phe (Boc-PLPLP) (SEQ ID NO:12)] (La, M., et al., FASEB J. 15:2247-2256) and an FPR2 antagonist [Trp-Arg-Trp-Trp-Trp-Trp; WRWWWW (WRW^4) (SEQ ID NO:13)] (Bae, Y. S et al., J. Immunol. 173:607-614.) were administered prior to WKYMVm treatment in CLP mice. […] Boc-PLPLP (4 mg/kg), WRW^4 (4 mg/kg), or Boc-PLPLP (4 mg/kg)+WRW^4 (4 mg/kg) was injected subcutaneously 2 h before CLP. After CLP, Boc-PLPLP (4 mg/kg) or WRW^4 (4 mg/kg) was injected subcutaneously four times at 12-h intervals 2 h before WKYMVm treatment (4 mg/kg, subcutaneous).
Statistical analysis. Survival data were analyzed using the log-rank test. All other data were evaluated using ANOVA. The Bonferroni test was used for post hoc comparisons and statistical significance was set a priori at P<0.05.
FPR-family agonists (WKYMVm (SEQ ID NO:1), WKYMVM(SEQ ID NO:14), fMLF(SEQ ID NO:15) and MMK-1 (SEQ ID NO:16)) or scrambled peptide (VWMYmK: SEQ ID NO: 17) (4 mg/kg, respectively) were injected subcutaneously four times to CLP mice at 2, 14, 26, and 38 h post-CLP.
To investigate whether the analogs of WKYMVm(SEQ ID NO:1), WRYMVm(SEQ ID NO: 2), WKWMVm(SEQ ID NO: 3), WKRMVm(SEQ ID NO: 4), WKFMVm(SEQ ID NO: 5), WHYMVm(SEQ ID NO: 6), WKYMYm(SEQ ID NO: 7), WKYMFm(SEQ ID NO: 8), WKYMWm(SEQ ID NO: 9), WKYMVV(SEQ ID NO: 10) and WKEMVm(SEQ ID NO: 11) have therapeutic effects on experimental sepsis, CLP was performed on albino ICR (Institute of Cancer Research) mice, and their survival was monitored for up to 10 days. […] 4 mg/kg of WKYMVm or each analog of WKYMVm was injected subcutaneously four times into CLP mice at 2, 14, 26, and 38 h post-CLP (FIG. 1h).
To investigate the role of Th1 cytokines (IL-12 and IFN-γ) on WKYMVm-induced survival effect after sepsis, the CLP model was applied to IL-12Rβ2- and IFN-γ-deficient mice (C57BL/6 background). […] WT C57BL/6 or IL-12Rβ2-deficient mice were subcutaneously injected with WKYMVm (4 mg/kg) or PBS four times to CLP mice 2, 14, 26, and 38 h post-CLP. In FIG. 5d, WT C57BL/6 or IFN-γ-deficient mice were subcutaneously injected with WKYMVm (4 mg/kg) or PBS four times to CLP mice 2, 14, 26, and 38 h post-CLP. Data are expressed as the mean±standard error. *P<0.05; **P<0.01 compared with vehicle (c, d). n=10-16 mice per group (c,d) […]

[1] = test system: E. coli ingested by mouse neutrophils; assay: Neutrophil bactericidal activity in vitro; assay type: cell-based; settings: antagonist 10 μM added 30 min prior to WKYMVm (100 nM); FIG. 3b
Experimental: To determine whether WKYMVm treatment increases bactericidal activity in vitro, mouse neutrophils were allowed to ingest E. coli for 1 h and were then stimulated with 0.1-1000 nM WKYMVm for 20 min. […] Adherent neutrophils were incubated with 10^6 opsonized E. coli for 1 h, and stimulated with vehicle (PBS) or WKYMVm (0.1, 1, 10, 100, and 1000 nM) for 1 h.
Because FPR1 and FPR2 are expressed in neutrophils (data not shown), this experiment investigated the roles of FPR1-1 and FPR2-mediated pathways in WKYMVm-induced bactericidal activity. […] Mouse neutrophils were isolated from peripheral blood using a Histopaque-1077 solution (Sigma) as described previously (Bae, Y. S., et al., J. Immunol. 171:6807-6813, 2003). Boc-PLPLP (10 μM), WRW^4 (10 μM), or Boc-PLPLP (10 μM)+WRW^4 (10 μM) was added 30 min prior to the addition of WKYMVm (100 nM). The number of viable bacteria in the neutrophils was then determined.
Neutrophil bactericidal activity was measured according to the method of Yan, J. J., et al., Nat. Med. 10:161-167, 2004. […] After washing away the unengulfed E. coli, the number of viable bacteria in the neutrophils was determined before and after incubation with several concentrations of WKYMVm or vehicle for 1 h. The percentage of bacteria killed was calculated as 100×(1−number of CFU after WKYMVm stimulation/number of CFU before WKYMVm stimulation). […]

mouse neutrophils = assay: H2O2 generation in mouse neutrophils in vitro; assay type: cell-based; settings: antagonist 10 μM prior to WKYMVm (100 nM); FIG. 3d
Experimental: Because the bactericidal effect of phagocytes is related with H2O2 production (Hampton, M. B., et al., Blood. 92:3007-3017), the effect of WKYMVm on H2O2 generation in mouse neutrophils was evaluated. […] Mouse neutrophils were stimulated with vehicle (PBS) or WKYMVm (1-1000 nM) for 15 min. Neutrophils isolated from sham, CLP−, or CLP+WKYMVm-treated mice were stimulated with 100 nM PMA for 1 h. Freshly isolated neutrophils from normal mice were stimulated with various concentrations of WKYMVm for 10 min in the presence of cytochalasin B (5 μM).
To investigate the role of FPR1 and FPR2, neutrophils were preincubated with Boc-PLPLP (10 μM), WRW^4 (10 μM), or vehicle (DMSO) for 30 minutes prior to adding WKYMVm (100 nM) for 10 min. H2O2 in the supernatant was measured using an H2O2 assay kit (Molecular Probes).
Boc-PLPLP (10 μM), WRW^4 (10 μM), or Boc-PLPLP (10 μM)+WRW^4 (10 μM) was added […] prior to the addition of WKYMVm (100 nM).

[2] = test system: splenocytes of Th1 mouse model; assay: Splenocyte proliferation assay, Th1 mouse model (OVA+LPS); assay type: in vivo; settings: OVA+LPS immunized mice; 72 h incubation with OVA; compared to sham-treated mice; FIG. 4e
Experimental: To generate the Th1 and Th2 mouse models (FIG. 4b), 6-week-old C57BL/6 WT mice were twice immunized intraperitoneally with 75 μg of OVA+10 μg of LPS or 2 mg of alum on days 0 and 7 and then challenged intraperitoneally with 50 μg of OVA on days 14, 15, and 16. Isolated splenocytes were subjected to a cell proliferation assay with and without OVA incubation. Briefly, splenocytes were harvested in RPMI 1640 media and incubated (2×10^5 cells/well) in 96-well flat-bottom plates at 37° C. for 96 h in medium alone or with 5, 50 or 500 μg OVA/ml. The example measured cellular thymidine incorporation following a 72 h culture period with 1 μCi [^3H]thymidine.
Because IL-2 promotes T-cell proliferation (Benczik, M., et al., Immunol. Invest. 33:109-142), the effect of FPR activation by WKYMVm on Th1 and Th2 cell proliferation was evaluated using inert antigens. WKYMVm (4 mg/kg) was injected subcutaneously four times into CLP mice 2, 14, 26, and 38 h post-CLP. Separate groups of animals were given sham, CLP+PBS, or CLP+WKYMVm treatment. Data are expressed as the mean±standard error (n=8). *P<0.05; **P<0.01 compared with CLP+PBS. […]
Protocol for the Th1 and Th2 mice (FIG. 4d) was described below. […] Data are expressed as the mean±standard error (n=5 for e, f), and * indicates P<0.05 compared to OVA+PBS group; ** indicates P<0.05 versus the other groups. […]

Substance: LESIFRSLLFRVM (MMK-1 peptide) [FPR-family agonist]
- therapeutic effect of FPR ligands and scrambled peptide (CLP mice): lower than that of WKYMVm

Substance: N-formyl-Met-Leu-Phe (For-Met-Leu-Phe) [fMLF, FPR-family agonist]
- therapeutic effect of FPR ligands and scrambled peptide (CLP mice): lower than that of WKYMVm

Substance: N-t-butoxycarbonyl-Phe-Leu-Phe-Leu-Phe (Boc-FLFLF) [Boc-PLPLP, FPR1 antagonist]
- reversal of the therapeutic effects of WKYMVm by antagonist pre-treatment (CLP mice): only partly reversed
- WKYMVm-induced bactericidal activity after antagonist pre-treatment [1]: significantly inhibited bactericidal activity
- reversal of WKYMVm-induced H2O2 generation by antagonist pre-treatment (mouse neutrophils): partly reversed
- splenocyte proliferation, Th1 mouse model [2]: inhibited

Substance: Val-Trp-Met-Tyr-D-Met-Lys (VWMY[dM]K) [VWMYmK]
- therapeutic effect of FPR ligands and scrambled peptide (CLP mice): no therapeutic effect

Substance: WHYMVm: analog of WKYMVm (WHYMV[dM])
- therapeutic effect of WKYMVm analogs on experimental sepsis (CLP mice): no therapeutic effects

Substance: WKEMVm: analog of WKYMVm (WKEMV[dM])
- therapeutic effect of WKYMVm analogs on experimental sepsis (CLP mice): no therapeutic effects

Substance: WKFMVm: analog of WKYMVm (WKFMV[dM])
- therapeutic effect of WKYMVm analogs on experimental sepsis (CLP mice): no therapeutic effects

Substance: WKRMVm: analog of WKYMVm (WKRMV[dM])
- therapeutic effect of WKYMVm analogs on experimental sepsis (CLP mice): no therapeutic effects

Substance: WKWMVm: analog of WKYMVm (WKWMV[dM])
- therapeutic effect of WKYMVm analogs on experimental sepsis (CLP mice): no therapeutic effects

Substance: WKYMFm: analog of WKYMVm (WKYMF[dM])
- therapeutic effect of WKYMVm analogs on experimental sepsis (CLP mice): no therapeutic effects

Substance: WKYMVV: analog of WKYMVm (WKYMVV)
- therapeutic effect of WKYMVm analogs on experimental sepsis (CLP mice): no therapeutic effects

Substance: WKYMWm: analog of WKYMVm (WKYMW[dM])
- therapeutic effect of WKYMVm analogs on experimental sepsis (CLP mice): no therapeutic effects

Substance: WKYMYm: analog of WKYMVm (WKYMY[dM])
- therapeutic effect of WKYMVm analogs on experimental sepsis (CLP mice): no therapeutic effects

Substance: WRWWWW [WRW^4]
- reversal of the therapeutic effects of WKYMVm by antagonist pre-treatment (CLP mice): completely reversed
- WKYMVm-induced bactericidal activity after antagonist pre-treatment [1]: significantly inhibited bactericidal activity
- reversal of WKYMVm-induced H2O2 generation by antagonist pre-treatment (mouse neutrophils): partly reversed
- splenocyte proliferation, Th1 mouse model [2]: inhibited

Substance: WRYMVm: analog of WKYMVm (WRYMV[dM])
- therapeutic effect of WKYMVm analogs on experimental sepsis (CLP mice): no therapeutic effects
